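Values below derive from 48-hour exposures of cells grown in 96-well plates, with endpoints linearly interpolated between the two concentrations bracketing the appropriate inhibition level. GI50 = concentration required for 50% inhibition of growth. TGI marks complete inhibition of growth.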
What was measured:
Experiment in all cases: NCI-60 cell line screen, 48 h
U251 CNS = tested on: U251 CNS
OVCAR-3 ovarian = tested on: OVCAR-3 ovarian
LOX IMVI melanoma = tested on: LOX IMVI melanoma
SW-620 colon = tested on: SW-620 colon
OVCAR-4 ovarian = tested on: OVCAR-4 ovarian
TK-10 renal = tested on: TK-10 renal
HCT-15 colon = tested on: HCT-15 colon
SK-MEL-28 melanoma = tested on: SK-MEL-28 melanoma
NCI/ADR-RES ovarian = tested on: NCI/ADR-RES ovarian
T-47D breast = tested on: T-47D breast

Row | SMILES | TGI (U251 CNS) | TGI (OVCAR-3 ovarian) | TGI (LOX IMVI melanoma) | TGI (SW-620 colon) | TGI (OVCAR-4 ovarian) | TGI (TK-10 renal) | TGI (HCT-15 colon) | TGI (SK-MEL-28 melanoma) | TGI (NCI/ADR-RES ovarian) | TGI (T-47D breast) | GI50 (U251 CNS) | GI50 (NCI/ADR-RES ovarian) | GI50 (OVCAR-3 ovarian) | GI50 (LOX IMVI melanoma) | GI50 (SW-620 colon) | GI50 (OVCAR-4 ovarian) | GI50 (TK-10 renal) | GI50 (T-47D breast) | GI50 (HCT-15 colon) | GI50 (SK-MEL-28 melanoma)
1 | CC1CCCC2(O1)OC1CC(=O)OC1C1=C2C(=O)c2ccccc2C1=O (stereo not drawn) | 32.5 µM | 10.5 µM | 9.29 µM | 6.42 µM | 3.83 µM | 21 µM | 8.04 µM | 4.75 µM | – | – | – | – | – | – | – | – | – | – | – | –
2 | CCCC1C2=C(C(=O)OC2=O)C2C(CC)CC3=C(C(=O)OC3=O)C12 (stereo not drawn) | > 100 µM | > 100 µM | > 100 µM | > 100 µM | – | > 100 µM | > 100 µM | > 100 µM | > 100 µM | > 100 µM | – | – | – | – | – | – | – | – | – | –
3 | CNCc1ccc(C)c(NC(=O)c2ccc(Nc3nc(-c4ccccc4)c4ccccc4n3)cc2)c1 | 2.96 µM | 3.84 µM | 3.13 µM | 3.57 µM | 4.79 µM | 4.56 µM | 3.35 µM | – | 5.25 µM | 5.59 µM | 1540 nM | 2250 nM | 1900 nM | 1670 nM | 1840 nM | 1840 nM | 2.12 µM | 2260 nM | 1690 nM | –
4 | CC(=O)NC1C(=O)CC(c2ccccc2)N(C)C1c1ccccc1 (stereo not drawn) | > 100 µM | > 100 µM | > 100 µM | > 100 µM | > 100 µM | > 100 µM | > 100 µM | > 100 µM | – | – | – | – | – | – | – | – | – | – | – | –
5 | NCCN.O=N[O-].O=N[O-].O=N[O-].O=N[O-].[Co+3].[K+] | > 100 µM | > 100 µM | > 100 µM | > 100 µM | > 100 µM | > 100 µM | > 100 µM | > 100 µM | – | – | > 100000 nM | – | > 100000 nM | > 100000 nM | > 100000 nM | > 100000 nM | > 100 µM | – | > 100000 nM | > 100 µM
6 | CC(=O)OC12CCCCC1C1(CCCC1)NC2=O (stereo not drawn) | > 100 µM | > 100 µM | > 100 µM | > 100 µM | > 100 µM | > 100 µM | > 100 µM | > 100 µM | – | – | – | – | – | – | – | – | – | – | – | –
7 | N#CC1=C(N)Oc2c(ccc3ccccc23)C1c1ccccc1Cl (stereo not drawn) | 17.1 µM | 0.493 µM | 12.1 µM | 14.7 µM | 20.4 µM | 44.1 µM | 11.4 µM | 22.9 µM | 5.62 µM | – | 407 nM | 133 nM | 197 nM | 479 nM | 172 nM | 1130 nM | 4.95 µM | – | 183 nM | 1.92 µM
8 | Cc1nc2c(=O)n(C)c(=O)nc-2n(-c2ccc(Cl)cc2)c1C | > 100 µM | > 100 µM | – | > 100 µM | 84.4 µM | > 100 µM | > 100 µM | > 100 µM | – | – | – | – | – | – | – | – | – | – | – | –
9 | COC(=O)c1c(OC(=O)c2ccccc2)noc1CC(=O)OC1C=CCCC1 (stereo not drawn) | > 100 µM | > 100 µM | – | > 100 µM | > 100 µM | > 100 µM | > 100 µM | > 100 µM | – | – | – | – | – | – | – | – | – | – | – | –
10 | CC/C(=C(\c1ccccc1)c1ccc(OCC[N+](C)(C)C)cc1)c1ccccc1 | 29.2 µM | 20.3 µM | 27.7 µM | 30 µM | 30.9 µM | – | 34.1 µM | 22.2 µM | – | – | – | – | – | – | – | – | – | – | – | –
11 | O=C(Cc1nc2ccccc2s1)C(=O)Nc1ccccc1C(F)(F)F | > 100 µM | > 100 µM | > 100 µM | > 100 µM | > 100 µM | > 100 µM | > 100 µM | > 100 µM | – | – | – | – | – | – | – | – | – | – | – | –
12 | Cc1nn(C(=O)CC(=O)Nc2ccccc2Cl)c(C)c1N=Nc1ccccc1Cl | > 100 µM | > 100 µM | > 100 µM | > 100 µM | > 100 µM | > 100 µM | > 100 µM | > 100 µM | – | – | – | – | – | – | – | – | – | – | – | –
13 | Nc1n[nH]c(=O)c2c1c(Br)cn2C1OC(CO)C(O)C1O (stereo not drawn) | > 54.6 µM | > 50.8 µM | 15.3 µM | > 100 µM | 26.3 µM | > 100 µM | 48.4 µM | 26.6 µM | – | – | – | – | – | – | – | – | – | – | – | –
14 | COc1cc(C2C(C(=O)Nc3ccc(Cl)c(Cl)c3)=C(C)NC(C)=C2C(=O)Nc2ccc(Cl)c(Cl)c2)ccc1O | 34.7 µM | 27.7 µM | 33.9 µM | 29 µM | 23 µM | 42.6 µM | – | 27.3 µM | – | – | – | – | – | – | – | – | – | – | – | –
15 | O=C1c2ccccc2CC1C1(O)C(=O)Nc2c(Cl)cc(Cl)cc21 (stereo not drawn) | > 100 µM | > 100 µM | > 100 µM | > 100 µM | > 100 µM | > 100 µM | > 100 µM | > 100 µM | – | – | – | – | – | – | – | – | – | – | – | –
16 | COc1ccc(C2CC(c3cccc(Nc4ccnc5cc(Cl)ccc45)c3)=NN2c2ccc(Cl)cc2)cc1 (stereo not drawn) | – | > 100 µM | 13.6 µM | 21.6 µM | – | > 100 µM | 18.7 µM | 66.9 µM | 43.4 µM | 33.2 µM | – | 9510 nM | 11000 nM | 1300 nM | 533 nM | – | 12.9 µM | 702 nM | 2300 nM | 7.07 µM
17 | CCc1cccc(C(C)C)c1C1C(=O)C(=O)N(c2nc3ccccc3s2)C(=O)C1=O | > 100 µM | > 100 µM | > 100 µM | > 100 µM | > 100 µM | > 100 µM | > 100 µM | > 100 µM | – | – | – | – | – | – | – | – | – | – | – | –
18 | O=C1OC2C(O)COC2(OCc2c[nH]c3ccccc23)C1O (stereo not drawn) (tested in a mixture with another compound) | > 100 µM | > 100 µM | > 100 µM | > 100 µM | > 100 µM | > 100 µM | > 100 µM | – | – | – | – | – | – | – | – | – | – | – | – | –
19 | O=C1[C@@H]2C3C=CC([C@H]4C(=O)N(CO)C(=O)[C@@H]34)[C@@H]2C(=O)N1CO | > 100 µM | > 100 µM | > 61 µM | > 65.5 µM | > 100 µM | > 100 µM | > 56.7 µM | > 100 µM | – | – | – | – | – | – | – | – | – | – | – | –
20 | O=S(O)CCCSSCCCCSSCCCS(=O)O | > 100 µM | > 100 µM | > 100 µM | > 100 µM | > 100 µM | > 100 µM | > 100 µM | > 100 µM | – | – | – | – | – | – | – | – | – | – | – | –
21 | COc1ccc(/C=C(\NC(=O)c2ccccc2)c2nc3ccccc3[nH]2)cc1 | > 100 µM | > 100 µM | – | > 100 µM | > 100 µM | – | > 100 µM | 37.5 µM | – | – | – | – | – | – | – | – | – | – | – | –

— PubChem BioAssay (NCI)
